Laboratory results taken from the supplement of paper PMC10307832.

Legend:
Experiment in all cases: relative viability (nuclei count vs DMSO), 5 days (fraction); higher = more cells survive
LXF-289 = system: LXF-289
Summary of the method: (§1)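 Relative viability was taken as the ratio of nuclei in treated wells to nuclei in vehicle wells. Lung cancer cell lines in 1536-well plates received compounds by pin tool one day after seeding, either one drug alone or a fixed anchor-drug dose plus five library-drug doses (not always all listed) in √10 steps. Nuclei were counted on 4× images after 5 days of treatment, and values are medians of duplicate plates.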

NCI-H358 = system: NCI-H358
Summary of the method: as §1

NCI-H2085 = system: NCI-H2085
Summary of the method: as §1

LCLC-97TM1 = system: LCLC-97TM1
Summary of the method: as §1

NCI-H460 = system: NCI-H460
Summary of the method: as §1

LU99A = system: LU99A
Summary of the method: as §1

NCI-H2170 = system: NCI-H2170
Summary of the method: as §1

EPLC-272H = system: EPLC-272H
Summary of the method: as §1

NCI-H1975 = system: NCI-H1975
Summary of the method: as §1

SK-LU-1 = system: SK-LU-1
Summary of the method: as §1

COR-L 105 = system: COR-L 105
Summary of the method: as §1

HOP-62 = system: HOP-62
Summary of the method: as §1

NCI-H1755 = system: NCI-H1755
Summary of the method: as §1

A-427 = system: A-427
Summary of the method: as §1

HCC-78 = system: HCC-78
Summary of the method: as §1

SW 900 = system: SW 900
Summary of the method: as §1

UMC-11 = system: UMC-11
Summary of the method: as §1

NCI-H1915 = system: NCI-H1915
Summary of the method: as §1

NCI-H1793 = system: NCI-H1793
Summary of the method: as §1

NCI-H1944 = system: NCI-H1944
Summary of the method: as §1

LC-2-ad = system: LC-2-ad
Summary of the method: as §1

HCC-366 = system: HCC-366
Summary of the method: as §1

NCI-H1792 = system: NCI-H1792
Summary of the method: as §1

`CC1(C)CCC(c2ccc(Cl)cc2)=C(CN2CCN(c3ccc(C(=O)NS(=O)(=O)c4ccc(N[C@H](CCN5CCOCC5)CSc5ccccc5)c(S(=O)(=O)C(F)(F)F)c4)cc3)CC2)C1` [Navitoclax] + COc1cccc2cc(-c3nc([C@H]4CC[C@H](C(=O)O)CC4)n4ncnc(N)c34)[nH]c12 [OSI-027] (partner 0.5 µM) gave a relative viability (LXF-289; first compound 0.005 µM) of 0.77, a relative viability (LXF-289; first compound 0.01581 µM) of 0.867 and a relative viability (LXF-289; first compound 0.05 µM) of 0.731. It also gave a relative viability (LXF-289; first compound 0.1581 µM) of 0.753, a relative viability (LXF-289; first compound 0.5 µM) of 0.795 and a relative viability (NCI-H358; first compound 0.005 µM) of 0.785. It also gave a relative viability (NCI-H358; first compound 0.01581 µM) of 1.01, a relative viability (NCI-H358; first compound 0.05 µM) of 0.706 and a relative viability (NCI-H358; first compound 0.1581 µM) of 0.845. For the same compound, the relative viability (NCI-H358; first compound 0.5 µM) was 0.686, the relative viability (NCI-H2085; first compound 0.005 µM) was 0.664 and the relative viability (NCI-H2085; first compound 0.01581 µM) was 0.871. The relative viability (NCI-H2085; first compound 0.05 µM) was 0.544, the relative viability (NCI-H2085; first compound 0.1581 µM) was 0.846 and the relative viability (NCI-H2085; first compound 0.5 µM) was 0.757. For the same compound, the relative viability (LCLC-97TM1; first compound 0.005 µM) was 0.608, the relative viability (LCLC-97TM1; first compound 0.01581 µM) was 0.484 and the relative viability (LCLC-97TM1; first compound 0.05 µM) was 0.569. It also gave a relative viability (LCLC-97TM1; first compound 0.1581 µM) of 0.482, a relative viability (LCLC-97TM1; first compound 0.5 µM) of 0.601 and a relative viability (NCI-H460; first compound 0.005 µM) of 0.652. For the same compound, the relative viability (NCI-H460; first compound 0.01581 µM) was 0.702, the relative viability (NCI-H460; first compound 0.05 µM) was 0.821 and the relative viability (NCI-H460; first compound 0.1581 µM) was 0.652. For the same compound, the relative viability (NCI-H460; first compound 0.5 µM) was 0.671, the relative viability (LU99A; first compound 0.005 µM) was 0.305 and the relative viability (LU99A; first compound 0.01581 µM) was 0.345. For the same compound, the relative viability (LU99A; first compound 0.05 µM) was 0.248, the relative viability (LU99A; first compound 0.1581 µM) was 0.26 and the relative viability (LU99A; first compound 0.5 µM) was 0.312. The relative viability (NCI-H2170; first compound 0.005 µM) was 0.669, the relative viability (NCI-H2170; first compound 0.01581 µM) was 0.814 and the relative viability (NCI-H2170; first compound 0.05 µM) was 0.787. It also gave a relative viability (NCI-H2170; first compound 0.1581 µM) of 0.647, a relative viability (NCI-H2170; first compound 0.5 µM) of 0.551 and a relative viability (EPLC-272H; first compound 0.005 µM) of 0.296. The relative viability (EPLC-272H; first compound 0.05 µM) was 0.323, the relative viability (EPLC-272H; first compound 0.1581 µM) was 0.317 and the relative viability (EPLC-272H; first compound 0.5 µM) was 0.3. For the same compound, the relative viability (NCI-H1975; first compound 0.005 µM) was 0.764, the relative viability (NCI-H1975; first compound 0.01581 µM) was 0.83 and the relative viability (NCI-H1975; first compound 0.05 µM) was 0.823. For the same compound, the relative viability (NCI-H1975; first compound 0.1581 µM) was 0.688, the relative viability (NCI-H1975; first compound 0.5 µM) was 0.677 and the relative viability (SK-LU-1; first compound 0.005 µM) was 0.374. It also gave a relative viability (SK-LU-1; first compound 0.01581 µM) of 0.429, a relative viability (SK-LU-1; first compound 0.05 µM) of 0.347 and a relative viability (SK-LU-1; first compound 0.1581 µM) of 0.374. It also gave a relative viability (SK-LU-1; first compound 0.5 µM) of 0.319, a relative viability (COR-L 105; first compound 0.005 µM) of 0.663 and a relative viability (COR-L 105; first compound 0.01581 µM) of 1.01. It also gave a relative viability (COR-L 105; first compound 0.05 µM) of 0.573, a relative viability (COR-L 105; first compound 0.1581 µM) of 0.775 and a relative viability (COR-L 105; first compound 0.5 µM) of 0.582. It also gave a relative viability (HOP-62; first compound 0.005 µM) of 0.734, a relative viability (HOP-62; first compound 0.01581 µM) of 0.971 and a relative viability (HOP-62; first compound 0.05 µM) of 0.863. It also gave a relative viability (HOP-62; first compound 0.1581 µM) of 0.648, a relative viability (HOP-62; first compound 0.5 µM) of 0.894 and a relative viability (NCI-H1755; first compound 0.005 µM) of 0.683. The relative viability (NCI-H1755; first compound 0.01581 µM) was 0.834, the relative viability (NCI-H1755; first compound 0.05 µM) was 0.612 and the relative viability (NCI-H1755; first compound 0.1581 µM) was 0.649. The relative viability (NCI-H1755; first compound 0.5 µM) was 0.671, the relative viability (A-427; first compound 0.005 µM) was 0.485 and the relative viability (A-427; first compound 0.01581 µM) was 0.525. It also gave a relative viability (A-427; first compound 0.05 µM) of 0.444, a relative viability (A-427; first compound 0.1581 µM) of 0.477 and a relative viability (A-427; first compound 0.5 µM) of 0.392. It also gave a relative viability (HCC-78; first compound 0.005 µM) of 0.399, a relative viability (HCC-78; first compound 0.01581 µM) of 0.343 and a relative viability (HCC-78; first compound 0.1581 µM) of 0.349. The relative viability (HCC-78; first compound 0.5 µM) was 0.384, the relative viability (SW 900; first compound 0.005 µM) was 0.497 and the relative viability (SW 900; first compound 0.01581 µM) was 0.681. For the same compound, the relative viability (SW 900; first compound 0.05 µM) was 0.534, the relative viability (SW 900; first compound 0.1581 µM) was 0.395 and the relative viability (SW 900; first compound 0.5 µM) was 0.546. It also gave a relative viability (UMC-11; first compound 0.005 µM) of 0.462, a relative viability (UMC-11; first compound 0.01581 µM) of 0.501 and a relative viability (UMC-11; first compound 0.05 µM) of 0.471. It also gave a relative viability (UMC-11; first compound 0.1581 µM) of 0.422, a relative viability (UMC-11; first compound 0.5 µM) of 0.234 and a relative viability (NCI-H1915; first compound 0.005 µM) of 0.595. It also gave a relative viability (NCI-H1915; first compound 0.01581 µM) of 0.636, a relative viability (NCI-H1915; first compound 0.05 µM) of 0.627 and a relative viability (NCI-H1915; first compound 0.1581 µM) of 0.521. For the same compound, the relative viability (NCI-H1915; first compound 0.5 µM) was 0.629, the relative viability (NCI-H1793; first compound 0.005 µM) was 0.267 and the relative viability (NCI-H1793; first compound 0.01581 µM) was 0.414. It also gave a relative viability (NCI-H1793; first compound 0.1581 µM) of 0.273, a relative viability (NCI-H1793; first compound 0.5 µM) of 0.261 and a relative viability (NCI-H1944; first compound 0.005 µM) of 0.401. It also gave a relative viability (NCI-H1944; first compound 0.01581 µM) of 0.495, a relative viability (NCI-H1944; first compound 0.05 µM) of 0.364 and a relative viability (NCI-H1944; first compound 0.1581 µM) of 0.376. The relative viability (NCI-H1944; first compound 0.5 µM) was 0.419, the relative viability (LC-2-ad; first compound 0.005 µM) was 0.802 and the relative viability (LC-2-ad; first compound 0.01581 µM) was 1.09. The relative viability (LC-2-ad; first compound 0.05 µM) was 0.895, the relative viability (LC-2-ad; first compound 0.1581 µM) was 0.762 and the relative viability (LC-2-ad; first compound 0.5 µM) was 0.767. It also gave a relative viability (HCC-366; first compound 0.005 µM) of 0.912, a relative viability (HCC-366; first compound 0.01581 µM) of 0.941 and a relative viability (HCC-366; first compound 0.1581 µM) of 0.972. It also gave a relative viability (HCC-366; first compound 0.5 µM) of 0.978, a relative viability (NCI-H1792; first compound 0.005 µM) of 0.747 and a relative viability (NCI-H1792; first compound 0.01581 µM) of 0.799. For the same compound, the relative viability (NCI-H1792; first compound 0.05 µM) was 0.667, the relative viability (NCI-H1792; first compound 0.1581 µM) was 0.726 and the relative viability (NCI-H1792; first compound 0.5 µM) was 0.705.
